According to patent publication US11447477B2, “Indoleamine-2,3-dioxygenase inhibitor, the preparative method and the use thereof” (HINOVA PHARMACEUTICALS INC., priority 2017, dated 2022):

Assays:
[1] = molecular target: IDO protease in HeLa cells (Homo sapiens (Human), UniProt P14902); experiment: Inhibition of IDO protease in HeLa cells (IFNγ-induced, Trp/Kyn by RapidFire/MS); format: cell-based; settings: for IC50: HeLa cells, 25 ng/ml IFNγ, 48 hours
Excerpt: 1) Experimental Materials and Apparatus • HeLa cells (ATCC, Cat. No. CCL-2) • γ interferon IFNγ (R&D, Cat. No. 285-IF-100) • DMEM High Glucose media (Invitrogen, Cat. No. 11965-084) • Fetal bovine serum FBS (Invitrogen, Cat. No. 10100-147) • Trypsin-EDTA (0.050%)(Invitrogen, Cat. No. 25300-054) • Phosphate buffer solution PBS, pH 7.4 (Invitrogen, Cat. No. 10010023) • Penicillin-Streptomycin (P/S) (Invitrogen, Cat. No. 15070063) • L-tryptophan (Trp) (Sigma, Cat. No. T8941) • L-kynurenine (Kyn) (Sigma, Cat. No. K8625) • N′-diformylkynurenine (NFK) (J&K, Cat. No. F700490) • 3-Nitro-L-tyrosine (J&K, Cat. No. N0905) • Acetonitrile (Sigma, Cat. No. 34851) • Dimethylsulfoxide DMSO (Sigma, Cat. No. D8418) • Inhibitor INCB024360 (Selleckchem, Cat. No. S7910) • Inhibitor INCB024360-analog (MedKoo, Cat. No. 205493) • Inhibitor NLG919 (Selleckchem, Cat. No. S7111) • 96 well transparent flat bottom polystyrene cell culture plate (Corning, Cat #3599) • 96 well V-bottom polypropylene plate (PE, Cat #6008290) • 96 well U-shaped bottom polypropylene plate (PE, Cat. No. 6008390) • Multidrop™ distribution box with small metal tip (Thermo, Cat. No. 24073295) • Multidrop™ distribution box of standard tube with metal tip (Thermo, Cat. No. 24072670) • Automatic filling platform (Agilent) • Multidrop™ Combi automatic liquid separator (Thermo) • Centrifugal machine (Eppendorf) • Cell incubator (Thermo) • Cell counter (Thermo) • RapidFire Mass system (Agilent)
2) Experimental Method for Compound Assay
The compound (compounds 4, 8, 9, 78, 91 of the present invention) was dissolved in DMSO to prepare a solution with a concentration of 3 mM, and then 15 μL of the compound solution is added to a 96 well plate, and serially diluted by 3 times dilution to obtain 10 points. 2 μL compound solution or DMSO (for HPE/ZPE) was transferred to a new 96 well plate. HeLa cell suspension was seeded into the cell culture plate with a density of 1×10^4 cells/well. For HPE control well, the cell culture medium for detection was DMEM, including 10% FBS, 1% P/S, and 122 μM Trp; for ZPE control well and the compound wells, the cell culture medium was DMEM, including 10% FBS, 1% P/S, […], and 25 ng/ml IFNγ. 192 μL detection medium prepared as above was added to a 96 well plate. 78 μL DMEM was added to the compound plate and thoroughly mixed, and then 8 μL compound solution diluted with DMEM was transferred to the 96 well plate containing the detection medium. The cell culture plate was taken out, and the cell culture medium was discarded, then 100 μL compound solution mentioned above was transferred to the cell culture plate. The cell culture plate was moved into the cell incubator and kept for 48 hours. When detected, the cell culture plate was taken out, and 50 μL supernatant was transferred to a new 96 well plate, to which was added 200 μL acetonitrile, and the plate was mixed well. The plate was centrifugated at 4° C. for 20 minutes (rotatory speed being 4000 rpm), and 40 μL supernatant was transferred to another 96 well plate, to which was further added 360 μL deionized water containing […] internal reference (3-nitro-L-tyrosine). The plate was fully mixed, and then the sample was detected by RapidFire/MS system. The standards of L-tryptophan (Trp) and L-kynurenine (Kyn) were dissolved in water to obtain a concentration of 10 mM, and the standard curve was performed by three times dilution. The inhibitory ratio was calculated by obtained data, and the IC50 curve was completed by processing the resultant data with Graphpad Prism5 software.

[2] = molecular target: human IDO1 protease (Homo sapiens (Human), UniProt P14902); experiment: Inhibitory activity against human IDO1 protease (absorbance test method); format: biochemical; settings: IDO1 (His-tag) enzyme, absorbance at 320 nm
human IDO1 protease, sequence (P14902 whole entry): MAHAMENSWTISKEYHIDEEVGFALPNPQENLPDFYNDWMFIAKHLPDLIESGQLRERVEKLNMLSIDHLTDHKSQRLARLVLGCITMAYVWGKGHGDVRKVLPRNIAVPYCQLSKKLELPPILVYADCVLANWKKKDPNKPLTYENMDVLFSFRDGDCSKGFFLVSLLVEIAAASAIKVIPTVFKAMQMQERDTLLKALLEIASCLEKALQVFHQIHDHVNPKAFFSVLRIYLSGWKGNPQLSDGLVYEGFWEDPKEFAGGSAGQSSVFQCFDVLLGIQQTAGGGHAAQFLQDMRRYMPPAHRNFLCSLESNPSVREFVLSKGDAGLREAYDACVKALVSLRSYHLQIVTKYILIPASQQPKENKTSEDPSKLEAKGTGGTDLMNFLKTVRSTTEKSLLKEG
Protocol: 1) Experimental Materials and Apparatus: • IDO1 (His-tag) enzyme (BPS Bioscience) • L-tryptophan (Sigma) • Methylene blue (Sigma) • Catalase originated from the liver of cattle (Sigma) • L-ascorbic acid (Sigma) • Glycerol (Sigma) • Potassium dihydrogen phosphate solution (Sigma) • Tween 20 (Sigma) • Automatic sampling platform Liquid handler (Bravo & Echo) • Microplate Reader SpectraMax M5e (Molecular Devices)
2) Test Method of Compounds: The Compounds are Determined by Absorbance Test Method:
The tested compounds and the reference compounds are dissolved in DMSO to prepare a high concentration of storage solution. The stock solution of reference compound was diluted with DMSO to prepare a 100× solution. In the first column of the working plate, 8 μL above tested compounds and 8 μL 100× reference compound were respectively added as the highest concentration, and then the highest concentrations were subjected to three times dilution to obtain 11 concentrations and prepare 100× solution. 0.5 μL solution was transferred from the above plate to the detection plate. […]. For HPE and ZPE control wells, 0.5 μL 100% DMSO was added.
25 μL 2×IDO1 (His-tag) enzyme solution (containing L-ascorbic acid, methylene blue, and catalase) was added to each well. 25 μL reaction solution without IDO1 (His-tag) enzyme was added into HPE control well. The test plate was centrifugated at 1000 rpm for 1 minute to mix well. Then, the test plate was incubated at room temperature for 30 minutes. 25 μL above 2× substrate (L-tryptophan) solution was added to each well. The test plate was centrifugated at 1000 rpm for 1 minute to mix well. The detection plate was placed on ELISA (SpectraMax M5e), the temperature was set at 25° C., and the absorbance (OD value) was measured at 320 nm every 10 minutes till 60 minutes.
Calculating the increase ratio of absorbance: the slope of the absorbance increase curve from 10 min to 60 min is derived from SpectralMax M5e. The inhibition coefficient of compound was calculated: the inhibition ratio of compound=(the absorbance increase ratio of ZPE control well−the absorbance increase ratio of compound well)/(the absorbance increase ratio of ZPE control well−the absorbance increase ratio of HPE control well)×100. Results was analyzed by Prism 5.0.

[3] = Pharmacokinetics in mice; format: in vivo, ICR mice; settings: for Cmax: read-out: Blood concentration Cmax; for AUC: read-out: Curve area AUC; for Tmax: read-out: Peak time tmax; for MRT inf: read-out: Retention time MRTinf
Excerpt: 1) Experimental Materials and Apparatus: • LC-20AD HPLC system (SHIMADZU, Japan) • API4000 Triple quadrupole mass spectrometer (Applied Biosystem, USA) • PhenixWinnolin Pharmacokinetic software (Version 6.3, Certara, USA) • High speed freezing centrifuge (Thermo Fisher Scientific) • Analytical balance (SECURA225D-1CN) • Experimental animals: ICR mice (Chengdu Dashuo Experimental Animal Co., Ltd) • DMA (Sigma) • CMC-Na (Chengdu Kelong Chemical Co., Ltd) • Heparin (Chengdu Kelong Chemical Co., Ltd)
2) Experimental Methods and Results
A solution at concentration of 0.5 mg/mL was prepared. 0.2 ml of the final solution prepared was taken out and stored at −20° C. for concentration determination. Nine healthy adult ICR mice (20-30 g) were fasted overnight (free drinking water) and then administrated at a dosage of 0.2 mL/10 g by gavage. Prior to administration and 0.5, 1, 2, 4, 6, 8, 12, 24 h after administration, 0.1 mL blood was collected from the posterior orbital venous plexus and centrifuged at 4° C. for 5 min to separate the plasma, which was preserved at −20° C. for testing. Then the concentrations of tested compounds in the plasma were determined by LC/MS/MS.

[4] = ICR, mouse, 10 mg/kg, PO, 10 mpk, plasma

IDO protease in HeLa cells, sequence (P14902 whole entry): as above

| IC50 [1] [nM] | IC50 [2] [nM] | SMILES | further results |
| --- | --- | --- | --- |
| 18 |  | NS(=O)(=O)N1CC(CCSc2nonc2/C(=N/O)Nc2ccc(F)c(Br)c2)C1 [Compound 149, (Z)—N-(3-bromo-4-fluorophenyl)-N′-hydroxyl-4-((2-(1-sulfamoylazetidin-3-yl)ethyl)thio)-1,2,5-oxadiazol-3-formamidine] |  |
| 9 | 81 | [2H]C([2H])(Nc1nonc1/C(=N/O)Nc1ccc(F)c(Br)c1)C1CN(S(N)(=O)=O)C1 [Compound 150, (Z)—N-(3-bromo-4-fluorophenyl)-N′-hydroxyl-4-(((1-sulfadiazin-3-yl)methyl-D2)amino)-1,2,5-oxadiazol-3-carboxyoximide] |  |
| 13 | 69 | CNS(=O)(=O)N1CC(CNc2nonc2C(=NO)Nc2ccc(F)c(Br)c2)C1 [Compound 78] |  |
| 17 | 112 | NS(=O)(=O)N1CC[C@@H](CNc2nonc2/C(=N/O)Nc2ccc(F)c(Br)c2)C1 [Compound 8, (S)—N-(3-Bromo-4-fluorophenyl)-N′-hydroxyl-4-(((1-sulfamoylpyrrolidine-3-yl)methyl)amino)-1,2,5-oxadiazole-3-formamidine] |  |
|  | 128 | NS(=O)(=O)N1CC(F)(CNc2nonc2/C(=N/O)Nc2ccc(F)c(Br)c2)C1 [Compound 91] | inhibitory activities on IDO protease in HeLa cells (in words) [1]: excellent |
|  |  | NS(=O)(=O)NCCNc1nonc1C(=NO)Nc1ccc(F)c(Br)c1 [INCB24360, reference compound] | Cmax [3, 4]: 992 ng/mL; AUC [3, 4]: 1810 ng·h/mL; Tmax [3, 4]: 0.5 h; MRT inf [3, 4]: 2.03 h |
| 5 | 55 | NS(=O)(=O)N1CC(CNc2nonc2/C(=N/O)Nc2ccc(F)c(Br)c2)C1 [Compound 4, N-(3-Bromo-4-fluorophenyl)-N′-hydroxyl-4-(((1-sulfamoylazetidin-3-yl)methyl)amino)-1,2,5-oxadiazole-3-formamidine] | inhibitory activities on IDO protease in HeLa cells (in words) [1]: excellent; half-life time compared with the reference compound INCB-24360 (in words) [3]: longer half-life time; Cmax [3, 4]: 1080 ng/mL; AUC [3, 4]: 1760 ng·h/mL; half-life ([3]; ICR, mouse, 10 mg/kg, PO, 10 mpk, plasma, read-out: Half time t1/2 (converted)): 5.06 h; Tmax [3, 4]: 0.5 h; MRT inf [3, 4]: 3.28 h |
| 15 | 84 | NS(=O)(=O)N1CC[C@H](CNc2nonc2/C(=N/O)Nc2ccc(F)c(Br)c2)C1 [Compound 9, (R)—N-(3-bromo-4-fluorophenyl)-N′-hydroxyl-4-(((1-sulfamoylpyrrolidine-3-yl)methyl)amino)-1,2,5-oxadiazole-3-formamidine] |  |
| 75 |  | NC(=O)N1CC(CNc2nonc2/C(=N/O)Nc2ccc(F)c(Br)c2)C1 [Compound 140, (Z)—N-(3-bromo-4-fluorophenyl)-N′-hydroxyl-4-(((1-carbamoylazetidin)-3-methyl)amino)-1,2,5-oxadiazol-3-formamidine] |  |
| 14 |  | NS(=O)(=O)N1CC(CSc2nonc2/C(=N/O)Nc2ccc(F)c(Br)c2)C1 [Compound 148] |  |
| 10 |  | NS(=O)(=O)N1CC(CCNc2nonc2/C(=N/O)Nc2ccc(F)c(Br)c2)C1 [Compound 132, (Z)—N-(3-bromo-4-fluorophenyl)-N′-hydroxyl-4-((2-(1-sulfamoylazetidin-3-yl)ethyl)amino)-1,2,5-oxadiazol-3-formamidine] |  |
| 74 |  | NS(=O)(=O)N1CC(F)(CNc2nonc2C(=NO)Nc2ccc(F)c(Br)c2)C1 [Compound 91, (Z)—N-(3-bromo-4-fluorophenyl)-4-(3-fluoro-1-sulfadiazin-3-yl)methyl)amino)-N′-hydroxyl 1,2,5-oxadiazol-3-carboxyoximide] |  |
